This note sets out measurements from publication PMC4250379 (Neuroscience, 2014).

The target in this test is T1, MD-2 (Homo sapiens, UniProt Q9Y6Y9).
T1 sequence (Q9Y6Y9 19-160): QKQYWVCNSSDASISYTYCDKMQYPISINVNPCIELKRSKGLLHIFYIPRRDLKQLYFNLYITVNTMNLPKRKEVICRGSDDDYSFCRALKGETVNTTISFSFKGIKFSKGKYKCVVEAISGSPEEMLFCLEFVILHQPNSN
Put plainly: quenching of MD-2 intrinsic Tyr/Trp fluorescence. It counts as binding.

Consider `CN1CC[C@]23c4c5ccc(O[C@@H]6O[C@H](C(=O)O)[C@@H](O)[C@H](O)[C@H]6O)c4O[C@H]2[C@@H](O)C=C[C@H]3[C@H]1C5` [M3G, morphine-3-glucuronide], for which the Kd (as a rule, the constant that tells how readily two partners part at equilibrium) came out at 1500 ± 300 nM.
